# Data as given in patent US9993494B2, “Compositions and methods for treating fibrotic disease” (eFFECTOR Therapeutics, Inc., priority 2014, dated 2018).
# Test system: normal human lung fibroblasts
# Test: Ribosomal profiling: translational efficiency in TGFβ-treated fibroblasts
# Format: cell-based
# Settings: TGFβ-treated fibroblasts
# Description: Ribosomal profiling allows for measurement of changes in transcription and translation on a genome-wide basis accompanying TGFβ-dependent transformation of fibroblasts to myofibroblasts. Ribosomal profiles of the TGFβ-treated fibroblasts from Example 1 (about 6×10^6 cells/10 cm plate) were prepared and analyzed for changes in translational efficiencies with respect to potential disease-associated cellular changes accompanying this TGFβ-induced transformation.
# Briefly, cells were washed with cold PBS supplemented with cycloheximide and lysed with 1× mammalian cell lysis buffer for 10 minutes on ice. Lysates were clarified by centrifugation for 10 minutes at 14,000 rpm and supernatants were collected. Cell lysates were processed to generate ribosomal protected fragments and total mRNA according to the instructions included with the ARTseq Ribosome Profiling Kit (Illumina, San Diego, Calif.). Sequencing of total RNA (RNA) and of ribosome-protected fragments of RNA (RPF) was carried out using RNA-Seq methodology according to the manufacturer's instructions (Illumina). To analyze the ribosomal profiles, RNA-Seq reads were processed with tools from the FASTX-Toolkit (fastq_quality_trimmer, fastx_clipper and fastx_trimmer). Unprocessed and processed reads were evaluated for a variety of quality measures using FastQC, and processed reads were mapped to the human genome using TopHat (see, e.g., Trapnell et al., Bioinformatics 25:1105, 2009). Gene-by-gene assessment of the number of fragments strictly and uniquely mapping to the coding region of each gene was conducted using HTSeq-count, a component of the HTSeq package. […] Genes with low counts in either RPF or RNA were excluded from differential analyses. Pathway and network analyses of differential data were conducted using Ingenuity Pathway Analysis (IPA).
smiles,measurement,setting,value
COC(=O)[C@H]1[C@@H](O)[C@@]2(O)c3c(OC)cc(O[C@@H]4O[C@@H]([C@H](O)CO)CO[C@H]4OC)cc3O[C@@]2(c2ccc(OC)cc2)[C@@H]1c1ccccc1 [Silvestrol],renormalizing the translational profile of RPL9,ENSG00000163682,− (− = <0.9)
same,renormalizing the translational profile of RHOBTB3,ENSG00000164292,− (− = <0.9)
same,renormalizing the translational profile of HCN1,ENSG00000164588,− (− = <0.9)
same,renormalizing the translational profile of RPL36AL,ENSG00000165502,− (− = <0.9)
same,renormalizing the translational profile of RPL27A,ENSG00000166441,− (− = <0.9)
same,renormalizing the translational profile of RP11-382A20.3.1,ENSG00000166503,− (− = <0.9)
same,renormalizing the translational profile of ANKDD1A,ENSG00000166839,− (− = <0.9)
same,renormalizing the translational profile of RPL13,ENSG00000167526,− (− = <0.9)
same,renormalizing the translational profile of EEF2,ENSG00000167658,− (− = <0.9)
same,renormalizing the translational profile of CA5B,ENSG00000169239,+ (+ = 0.9 to 1.5)
same,renormalizing the translational profile of MURC,ENSG00000170681,− (− = <0.9)
same,renormalizing the translational profile of HTRA3,ENSG00000170801,− (− = <0.9)
same,renormalizing the translational profile of PDE7B,ENSG00000171408,+ (+ = 0.9 to 1.5)
same,renormalizing the translational profile of LPAR3,ENSG00000171517,+ (+ = 0.9 to 1.5)
same,renormalizing the translational profile of CTPS,ENSG00000171793,− (− = <0.9)
same,renormalizing the translational profile of QARS,ENSG00000172053,− (− = <0.9)
same,renormalizing the translational profile of RPL38,ENSG00000172809,− (− = <0.9)
same,renormalizing the translational profile of MRPL45,ENSG00000174100,− (− = <0.9)
same,renormalizing the translational profile of RPL4,ENSG00000174444,− (− = <0.9)
same,renormalizing the translational profile of RPL15,ENSG00000174748,− (− = <0.9)
same,renormalizing the translational profile of DES,ENSG00000175084,− (− = <0.9)
same,renormalizing the translational profile of EIF3F,ENSG00000175390,− (− = <0.9)
same,renormalizing the translational profile of CLCF1,ENSG00000175505,+ (+ = 0.9 to 1.5)
same,renormalizing the translational profile of AMIGO3,ENSG00000176020,− (− = <0.9)
same,renormalizing the translational profile of C14orf49,ENSG00000176438,− (− = <0.9)
same,renormalizing the translational profile of RPLP2,ENSG00000177600,− (− = <0.9)
same,renormalizing the translational profile of IMPDH2,ENSG00000178035,− (− = <0.9)
same,renormalizing the translational profile of DNAJC22,ENSG00000178401,− (− = <0.9)
same,renormalizing the translational profile of RPL35A,ENSG00000182899,− (− = <0.9)
same,renormalizing the translational profile of LENG9,ENSG00000182909,+ (+ = 0.9 to 1.5)
same,renormalizing the translational profile of C22orf32,ENSG00000183172,− (− = <0.9)
same,renormalizing the translational profile of NPW,ENSG00000183971,− (− = <0.9)
same,renormalizing the translational profile of PDE4B,ENSG00000184588,+++ (+++ = >2.0)
same,renormalizing the translational profile of ROBO2,ENSG00000185008,− (− = <0.9)
same,renormalizing the translational profile of PTCH1,ENSG00000185920,− (− = <0.9)
same,renormalizing the translational profile of POLR1D,ENSG00000186184,− (− = <0.9)
same,renormalizing the translational profile of DYNC2H1,ENSG00000187240,++ (++ = 1.5 to 2.0)
same,renormalizing the translational profile of RPL14,ENSG00000188846,− (− = <0.9)
same,renormalizing the translational profile of LRRK2,ENSG00000188906,− (− = <0.9)
same,renormalizing the translational profile of NACA,ENSG00000196531,− (− = <0.9)
same,renormalizing the translational profile of LAMB3,ENSG00000196878,+ (+ = 0.9 to 1.5)
same,renormalizing the translational profile of PCBP2,ENSG00000197111,+ (+ = 0.9 to 1.5)
same,renormalizing the translational profile of MAP3K5,ENSG00000197442,− (− = <0.9)
same,renormalizing the translational profile of RPL37A,ENSG00000197756,− (− = <0.9)
same,renormalizing the translational profile of RPL12,ENSG00000197958,− (− = <0.9)
same,renormalizing the translational profile of LPAR1,ENSG00000198121,− (− = <0.9)
same,renormalizing the translational profile of RPL23A,ENSG00000198242,− (− = <0.9)
same,renormalizing the translational profile of RPL10A,ENSG00000198755,− (− = <0.9)
same,renormalizing the translational profile of RPL39,ENSG00000198918,− (− = <0.9)
same,renormalizing the translational profile of CARD16,ENSG00000204397,+ (+ = 0.9 to 1.5)
same,renormalizing the translational profile of MICA,ENSG00000204520,− (− = <0.9)
same,renormalizing the translational profile of GNB2L1,ENSG00000204628,− (− = <0.9)
same,renormalizing the translational profile of RPL17,ENSG00000215472,− (− = <0.9)
same,renormalizing the translational profile of RPL41,ENSG00000229117,− (− = <0.9)
same,renormalizing the translational profile of ARPC1A,ENSG00000241685,− (− = <0.9)
same,renormalizing the translational profile of EEF1G,ENSG00000254772,− (− = <0.9)
same,number of genes whose translational efficiency was uniquely modulated by the compound,duplicate ribosomal profiles,26 genes
same,effect in renormalizing the translational profile of the gene,gene RPS2 (ENSG00000140988),− (− = <0.9)
same,effect in renormalizing the translational profile of the gene,gene RPS3 (ENSG00000149273),− (− = <0.9)
same,effect in renormalizing the translational profile of the gene,gene RPS3A (ENSG00000145425),− (− = <0.9)
same,effect in renormalizing the translational profile of the gene,gene RPS4X (ENSG00000198034),− (− = <0.9)
same,effect in renormalizing the translational profile of the gene,gene RPS4Y1 (ENSG00000129824),− (− = <0.9)
same,effect in renormalizing the translational profile of the gene,gene RPS5 (ENSG00000083845),− (− = <0.9)
same,effect in renormalizing the translational profile of the gene,gene RPS6 (ENSG00000137154),− (− = <0.9)
